Results taken from US20100324086A1, “COMPOUNDS AND METHODS” (Novasaid AB, priority 2008, published 2010).
One block for each compound: values may come before it.

What was measured:
[1] = target: T1, recombinant, membrane-bound mPGES-1 (Homo sapiens, UniProt O14684); assay: Thiobarbituric acid assay (TBA-MDA assay), inhibition of mPGES-1; format: biochemical; conditions: remaining PGH2 measured at 535 nm
T1 sequence (O14684 1-152): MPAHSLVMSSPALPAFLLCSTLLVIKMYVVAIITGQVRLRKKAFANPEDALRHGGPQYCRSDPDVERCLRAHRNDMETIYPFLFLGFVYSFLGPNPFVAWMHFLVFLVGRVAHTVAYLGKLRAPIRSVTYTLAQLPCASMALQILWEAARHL
Excerpt: Malondialdehyde is a product of lipid peroxidation and reacts with thiobarbituric acid forming a red product that absorbs at 535 nm (W. G. Niehaus, Jr and B. Samuelsson, Eur. J. Biochem 6, 126 (1968). The extinction coefficient of the TBA-MDA conjugate is 1.56×10^5 M^−1 cm^−1 (E. D. Wills. Biochem. J. 113, 315 (1969).
The method used for detection of inhibition of mPGES-1 is based on the detection of the amount of remaining PGH2. This method was described more than 20 years ago by Basevich et al (Bioorg. Khim. 1983, 9(5), 658-665.
The assay used was a modified variant and used citric acid instead of the TCA-TBA-HCl reagent described in the original assay. In this assay recombinant, membrane-bound mPGES-1 was incubated with PGH2. The reaction was stopped by adding citric acid with a final pH of 3 and a large excess of FeCl2 (20 mM) to convert any remaining PGH2 into MDA and […]. TBA reagent was finally added (0.67%) and the samples were heated at 80° C. for 30 min. The absorbance of the conjugate was measured at 535 nm.
The product of mPGES-1 (PGE2) was not measured directly in this assay, but rather the remaining substrate (PGH2) indirectly by adding FeCl2 that converts PGH2 into […] and 12-HHT. As a positive control a known mPGES-1 inhibitor, MK-886, was used and the new inhibitors were compared with the inhibition of MK-886 (% of MK-886 inhibition).

[2] = system: A549 lung carcinoma cells; assay: A549 assay, PGE2 content in supernatant by EIA; format: cell-based; conditions: TNFalfa and IL-1beta induced 16 h, 30 min compound, then 10 μM arachidonic acid 30 min
Experimental: A549 lung carcinoma cells, seeded at a density of 10,000 cells/well, were grown in 96 well tissue culture plates. TNFalfa (5 ng/ml) and […] (5 ng/ml) were added and the cells were incubated for 16 hours. Cells were washed in PBS and test compounds at the appropriate concentration in HBSS/0.1% BSA were added. After 30 minutes incubation with test compounds, 10 μM arachidonic acid was added and cells were further incubated for 30 minutes. Supernatant was collected and analyzed for PGE2 content by EIA according to manufacturer's instructions.

SMILES: O=C(Nc1ccc(C(F)(F)F)cn1)c1cccc(NC(=O)c2ccccc2C(F)(F)F)c1 [Compound 153, 3-[2-(Trifluoromethyl)-benzoylamino]-N-(5-trifluoromethyl-pyridine-2-yl)-benzamide]
IC50 [1]: 49 nM
EC50 ([2]; Homo sapiens, A549): 500 nM

SMILES: O=C(Nc1cccc2cccnc12)c1cccc(NC(=O)c2ccccc2Cl)c1 [Compound 8, 3-(2-Chloro-benzoylamino)-N-(quinolin-8-yl-)-benzamide]
IC50 [1]: 800 nM
EC50 [2]: 2960 nM

SMILES: O=C(NC1CCCCCC1)c1cccc(NC(=O)c2ccccc2C(F)(F)F)c1 [Compound 56, N-(3-Cycloheptylcarbamoyl-phenyl)-2-trifluoromethylbenzamide]
IC50 [1]: 660 nM

SMILES: C[C@@H](NC(=O)c1cccc(NC(=O)c2ccccc2I)c1)c1cccc2ccccc12 [Compound 96, 2-Iodo-N-[3-((R)-1-naphthalen-1-A-ethylcarbamoyl)-phenyl]-benzamide]
IC50 [1]: 230 nM

SMILES: C[C@H](NC(=O)c1cccc(NC(=O)c2ccccc2C(F)(F)F)c1)c1cccc2ccccc12 [Compound 77, N-[3-((S)-1-Naphthalen-1-yl-ethylcarbamoyl)-phenyl]-2-trifluoromethyl-benzamide]
IC50 [1]: 290 nM
EC50 ([2]; Homo sapiens, A549): 400 nM

SMILES: O=C(Nc1ccc2ccccc2n1)c1cccc(NC(=O)c2ccccc2Br)c1 [Compound 38, 3-(2-Bromo-benzoylamino)-N-quinolin-2-yl-benzamide]
IC50 [1]: 140 nM

SMILES: O=C(NC1CCCCCC1)c1cccc(NC(=O)c2ccccc2F)c1 [Compound 63, N-(3-Cycloheptylcarbamoyl-phenyl)-2-fluorobenzamide]
IC50 [1]: 460 nM

SMILES: C[C@@H](NC(=O)c1cccc(NC(=O)c2ccccc2C(F)(F)F)c1)c1cccc2ccccc12 [Compound 93, N-[3-((R)-1-Naphthalen-1-yl-ethylcarbamoyl)-phenyl]-2-trifluoromethyl-benzamide]
IC50 [1]: 120 nM
EC50 ([2]; Homo sapiens, A549): 450 nM

SMILES: C[C@H](NC(=O)c1cccc(NC(=O)c2ccccc2I)c1)c1cccc2ccccc12 [Compound 79, 2-Iodo-N-[3-((S)-1-naphthalen-1-yl-ethylcarbamoyl)-phenyl]-benzamide]
IC50 [1]: 200 nM
EC50 ([2]; Homo sapiens, A549): 1230 nM

SMILES: O=C(Nc1cccc(C(=O)Nc2ccc3ccccc3n2)c1)c1cccc(Cl)c1 [Compound 29, 3-(3-Chloro-benzoylamino)-N-quinolin-2-yl-benzamide]
IC50 [1]: 4200 nM

SMILES: O=C(NC1CCc2ccccc21)c1cccc(NC(=O)c2ccccc2Cl)c1 (stereo not shown) [Compound 34, 3-(2-Chloro-benzoylamino)-N-indan-1-yl-benzamide]
IC50 [1]: 720 nM
EC50 ([2]; Homo sapiens, A549): 5400 nM

SMILES: O=C(NCc1cccc2ccccc12)c1cccc(NC(=O)c2c(Cl)cccc2Cl)c1 [Compound 105, 2,6-Dichloro-N-{3-[(naphthalen-1-ylmethyl)-carbamoyl]-phenyl}-benzamide]
IC50 [1]: 520 nM

More lines, in order of falling IC50 [1], values ahead:

IC50 [1]: 1100 nM
EC50 ([2]; Homo sapiens, A549): 640 nM
SMILES: O=C(NCc1cccc2ccccc12)c1cccc(NC(=O)c2ccccc2F)c1 [Compound 104, 2-Fluoro-N-{3-[(naphthalen-1-ylmethyl)-carbamoyl]-phenyl}-benzamide]

IC50 [1]: 840 nM
SMILES: COc1ccccc1CNC(=O)c1cccc(NC(=O)c2ccccc2C(F)(F)F)c1 [Compound 144, N-(2-Methoxy-benzyl)-3-(2-trifluoromethyl-benzoylamino)-benzamide]

IC50 [1]: 470 nM
SMILES: C[C@H](NC(=O)c1cccc(NC(=O)c2c(Cl)cccc2Cl)c1)c1cccc2ccccc12 [Compound 74, 2,6-Dichloro-N-[3-((S)-1-naphthalen-1-yl-ethylcarbamoyl)-phenyl]-benzamide]

IC50 [1]: 260 nM
EC50 ([2]; Homo sapiens, A549): 1480 nM
SMILES: O=C(NCc1cccc2ccccc12)c1cccc(NC(=O)c2ccccc2Cl)c1 [Compound 117, 2-Chloro-N-{3-[(naphthalen-1-ylmethyl)-carbamoyl]-phenyl}-benzamide]

IC50 [1]: 230 nM
SMILES: C[C@H](NC(=O)c1cccc(NC(=O)c2ccccc2Br)c1)c1cccc2ccccc12 [Compound 72, 2-Bromo-N-[3-((S)-1-naphthalen-1-yl-ethylcarbamoyl)-phenyl]-benzamide]

IC50 [1]: 170 nM
SMILES: O=C(NCc1ccccc1N1CCCCC1)c1cccc(NC(=O)c2ccccc2C(F)(F)F)c1 [Compound 146, N-(2-piperidin-1-yl-benzyl)-3-(2-trifluoromethyl-benzoylamino)-benzamide]

IC50 [1]: 160 nM
SMILES: O=C(NCc1cccc(Br)c1)c1cccc(NC(=O)c2ccccc2C(F)(F)F)c1 [Compound 138, N-(3-Bromo-benzyl)-3-(2-trifluoromethyl-benzoylamino)-benzamide]

IC50 [1]: 110 nM
SMILES: O=C(NCc1ccccc1OC(F)(F)F)c1cccc(NC(=O)c2ccccc2C(F)(F)F)c1 [Compound 147, N-(2-Trifluoromethoxy-benzyl)-3-(2-trifluoromethyl-benzoylamino)-benzamide]
